In patent publication US20250236639A1, “NEUROACTIVE STEROIDS AND COMPOSITIONS THEREOF” (Sage Therapeutics, Inc., priority 2019, published 2025):

What follows are compounds tested against GABAA receptor (assay: Steroid inhibition of [35S]-TBPS binding, rat brain cortical membranes). Details: 3 nM [35S]-TBPS, in the presence of 5 mM GABA.
Procedure: [^35S]-t-Butylbicyclophosphorothionate (TBPS) binding assays using rat brain cortical membranes in the presence of 5 mM GABA has been described (Gee et al, J. Pharmacol. Exp. Ther. 1987, 241, 346-353; Hawkinson et al, Mol. Pharmacol. 1994, 46, 977-985; Lewin, A. H et al., Mol. Pharmacol. 1989, 35, 189-194).
Briefly, cortices are rapidly removed following decapitation of carbon dioxide-anesthetized Sprague-Dawley rats (200-250 g). The cortices are homogenized in 10 volumes of ice-cold 0.32 M sucrose using a glass/teflon homogenizer and centrifuged at 1500×g for 10 min at 4° C. The resultant supernatants are centrifuged at 10,000×g for 20 min at 4° C. to obtain the P2 pellets. The P2 pellets are resuspended in 200 mM NaCl/50 mM Na—K phosphate pH 7.4 buffer and centrifuged at 10,000×g for 10 min at 4° C. This washing procedure is repeated twice and the pellets are resuspended in 10 volumes of buffer. Aliquots ([…]) of the membrane suspensions are incubated with 3 nM [^35S]-TBPS and […] aliquots of test drug dissolved in dimethyl sulfoxide (DMSO) (final 0.5%) in the presence of 5 mM GABA. The incubation is brought to a final volume of 1.0 mL with buffer. Nonspecific binding is determined in the presence of […] and ranged from 15 to 25%. Following a 90 min incubation at room temp, the assays are terminated by filtration through glass fiber filters (Schleicher and Schuell No. 32) using a cell harvester (Brandel) and rinsed three times with ice-cold buffer. Filter bound radioactivity is measured by liquid scintillation spectrometry. Non-linear curve fitting of the overall data for each drug averaged for each concentration is done using Prism (GraphPad). […] The concentration of test compound producing 50% inhibition (IC50) of specific binding and the maximal extent of inhibition (Imax) are determined for the individual experiments with the same model used for the overall data and then the means±SEM.s of the individual experiments are calculated.
Various compounds are or can be screened to determine their potential as modulators of [^35S]-TBPS binding in vitro. These assays are or can be performed in accordance with the above

| SMILES | IC50 |
| --- | --- |
| CCOC[C@@]1(O)CC[C@H]2[C@H](CC[C@@H]3[C@@H]2CC[C@@]2(C)[C@H]3CC[C@@H]2[C@@](C)(O)Cn2cc(C#N)cn2)C1 [Compound 16, 1-((R)-2-((3R,5R,8R,9R,10S,13S,14S,17S)-3-(ethoxymethyl)-3-hydroxy-13-methylhexadecahydro-1H-cyclopenta[a]phenanthren-17-yl)-2-hydroxypropyl)-1H-pyrazole-4-carbonitrile] | < 0.1 µM |
| CCC[C@@]1(O)CC[C@@]2(C)[C@@H](CC[C@@H]3[C@@H]2CC[C@@]2(C)[C@H]3CC[C@@H]2[C@](C)(O)Cn2cc(C#N)cn2)C1 [Compound 17, 1-((S)-2-hydroxy-2-((3R,5S,8R,9S,10S,13S,14S,17S)-3-hydroxy-10,13-dimethyl-3-propylhexadecahydro-1H-cyclopenta[a]phenanthren-17-yl)propyl)-1H-pyrazole-4-carbonitrile] | 0.1 to 1 µM |
| COC[C@@]1(O)CC[C@H]2[C@@H](CC[C@@H]3[C@@H]2CC[C@@]2(C)[C@H]3CC[C@@H]2[C@](C)(O)Cn2cc(C#N)cn2)C1 [Compound 19, 1-((S)-2-hydroxy-2-((3R,5S,8R,9R,10S,13S,14S,17S)-3-hydroxy-3-(methoxymethyl)-13-methylhexadecahydro-1H-cyclopenta[a]phenanthren-17-yl)propyl)-1H-pyrazole-4-carbonitrile] | < 0.1 µM |
| COC[C@@]1(O)CC[C@H]2[C@@H](CC[C@@H]3[C@@H]2CC[C@@]2(C)[C@H]3CC[C@@H]2[C@@](C)(O)Cn2cc(C#N)cn2)C1 [Compound 20, 1-((R)-2-hydroxy-2-((3R,5S,8R,9R,10S,13S,14S,17S)-3-hydroxy-3-(methoxymethyl)-13-methylhexadecahydro-1H-cyclopenta[a]phenanthren-17-yl)propyl)-1H-pyrazole-4-carbonitrile] | 0.1 to 1 µM |
| C[C@@]1(O)CC[C@H]2[C@H](CC[C@@H]3[C@@H]2CC[C@]2(C)[C@@H](C(F)(F)Cn4cc(C#N)cn4)CC[C@@H]32)C1 [Compound 21, 1-(2,2-difluoro-2-((3R,5R,8R,9R,10S,13S,14S,17S)-3-hydroxy-3,13-dimethylhexadecahydro-1H-cyclopenta[a]phenanthren-17-yl)ethyl)-1H-pyrazole-4-carbonitrile] | < 0.1 µM |
| CCC[C@@]1(O)CC[C@H]2[C@H](CC[C@@H]3[C@@H]2CC[C@@]2(C)[C@H]3CC[C@@H]2[C@](C)(O)Cn2ccc(C#N)n2)C1 [Compound 22, 1-((S)-2-hydroxy-2-((3R,5R,8R,9R,10S,13S,14S,17S)-3-hydroxy-13-methyl-3-propylhexadecahydro-1H-cyclopenta[a]phenanthren-17-yl)propyl)-1H-pyrazole-3-carbonitrile] | < 0.1 µM |
| CCC[C@@]1(O)CC[C@H]2[C@H](CC[C@@H]3[C@@H]2CC[C@@]2(C)[C@H]3CC[C@@H]2[C@@](C)(O)Cn2ccc(C#N)n2)C1 [Compound 23, 1-((R)-2-hydroxy-2-((3R,5R,8R,9R,10S,13S,14S,17S)-3-hydroxy-13-methyl-3-propylhexadecahydro-1H-cyclopenta[a]phenanthren-17-yl)propyl)-1H-pyrazole-3-carbonitrile] | 0.1 to 1 µM |
| CCOC[C@@]1(O)CC[C@@]2(C)[C@H](CC[C@@H]3[C@@H]2CC[C@@]2(C)[C@H]3CC[C@@H]2[C@](C)(O)Cn2cc(C#N)cn2)C1 [Compound 24, 1-((S)-2-((3R,5R,8R,9S,10S,13S,14S,17S)-3-(ethoxymethyl)-3-hydroxy-10,13-dimethylhexadecahydro-1H-cyclopenta[a]phenanthren-17-yl)-2-hydroxypropyl)-1H-pyrazole-4-carbonitrile] | < 0.1 µM |
| CCOC[C@@]1(O)CC[C@@]2(C)[C@H](CC[C@@H]3[C@@H]2CC[C@@]2(C)[C@H]3CC[C@@H]2[C@@](C)(O)Cn2cc(C#N)cn2)C1 [Compound 25, 1-((R)-2-((3R,5R,8R,9S,10S,13S,14S,17S)-3-(ethoxymethyl)-3-hydroxy-10,13-dimethylhexadecahydro-1H-cyclopenta[a]phenanthren-17-yl)-2-hydroxypropyl)-1H-pyrazole-4-carbonitrile] | 0.1 to 1 µM |
| CCC[C@@]1(O)CC[C@@]2(C)[C@H](CC[C@@H]3[C@@H]2CC[C@@]2(C)[C@H]3CC[C@@H]2[C@](C)(O)Cn2cc(C#N)cn2)C1 [Compound 26, 1-((S)-2-hydroxy-2-((3R,5R,8R,9S,10S,13S,14S,17S)-3-hydroxy-10,13-dimethyl-3-propylhexadecahydro-1H-cyclopenta[a]phenanthren-17-yl)propyl)-1H-pyrazole-4-carbonitrile] | < 0.1 µM |
| CCC[C@@]1(O)CC[C@@]2(C)[C@H](CC[C@@H]3[C@@H]2CC[C@@]2(C)[C@H]3CC[C@@H]2[C@@](C)(O)Cn2cc(C#N)cn2)C1 [Compound 27, 1-((R)-2-hydroxy-2-((3R,5R,8R,9S,10S,13S,14S,17S)-3-hydroxy-10,13-dimethyl-3-propylhexadecahydro-1H-cyclopenta[a]phenanthren-17-yl)propyl)-1H-pyrazole-4-carbonitrile] | 0.1 to 1 µM |
| C[C@@]1(O)CC[C@H]2[C@H](CC[C@@H]3[C@@H]2CC[C@]2(C)[C@@H](C4(Cn5cc(C#N)cn5)COC4)CC[C@@H]32)C1 [Compound 28, 1-((3-((3R,5R,8R,9R,10S,13S,14S,17S)-3-hydroxy-3,13-dimethylhexadecahydro-1H-cyclopenta[a]phenanthren-17-yl)oxetan-3-yl)methyl)-1H-pyrazole-4-carbonitrile] | < 0.1 µM |
| COC[C@@]1(O)CC[C@H]2[C@H](CC[C@@H]3[C@@H]2CC[C@@]2(C)[C@H]3CC[C@@H]2[C@](C)(O)Cn2cc(C#N)cn2)C1 [Compound 29, 1-((S)-2-hydroxy-2-((3R,5R,8R,9R,10S,13S,14S,17S)-3-hydroxy-3-(methoxymethyl)-13-methylhexadecahydro-1H-cyclopenta[a]phenanthren-17-yl)propyl)-1H-pyrazole-4-carbonitrile] | < 0.1 µM |
| COC[C@@]1(O)CC[C@H]2[C@H](CC[C@@H]3[C@@H]2CC[C@@]2(C)[C@H]3CC[C@@H]2[C@@](C)(O)Cn2cc(C#N)cn2)C1 [Compound 30, 1-((R)-2-hydroxy-2-((3R,5R,8R,9R,10S,13S,14S,17S)-3-hydroxy-3-(methoxymethyl)-13-methylhexadecahydro-1H-cyclopenta[a]phenanthren-17-yl)propyl)-1H-pyrazole-4-carbonitrile] | 0.1 to 1 µM |
| CC(=O)c1cnn(C[C@@](C)(O)[C@H]2CC[C@H]3[C@@H]4CC[C@@H]5C[C@](C)(O)CC[C@@H]5[C@H]4CC[C@@]32C)c1 [Compound 31, 1-(1-((S)-2-hydroxy-2-((3R,5R,8R,9R,10S,13S,14S,17S)-3-hydroxy-3,13-dimethylhexadecahydro-1H-cyclopenta[a]phenanthren-17-yl)propyl)-1H-pyrazol-4-yl)ethanone] | < 0.1 µM |
| CC[C@H]1C[C@H]2[C@H](CC[C@@H]3[C@@H]2CC[C@@]2(C)[C@H]3CC[C@@H]2[C@](C)(O)Cn2cc(C#N)cn2)C[C@]1(C)O [Compound 34, 1-((S)-2-((2S,3S,5R,8R,9R,10S,13S,14S,17S)-2-ethyl-3-hydroxy-3,13-dimethylhexadecahydro-1H-cyclopenta[a]phenanthren-17-yl)-2-hydroxypropyl)-1H-pyrazole-4-carbonitrile] | < 0.1 µM |
| CC[C@H]1C[C@H]2[C@H](CC[C@@H]3[C@@H]2CC[C@@]2(C)[C@H]3CC[C@@H]2[C@@](C)(O)Cn2cc(C#N)cn2)C[C@]1(C)O [Compound 35, 1-((R)-2-((2S,3S,5R,8R,9R,10S,13S,14S,17S)-2-ethyl-3-hydroxy-3,13-dimethylhexadecahydro-1H-cyclopenta[a]phenanthren-17-yl)-2-hydroxypropyl)-1H-pyrazole-4-carbonitrile] | 0.1 to 1 µM |
| CCC[C@@]1(O)CC[C@H]2[C@H](CC[C@@H]3[C@@H]2CC[C@@]2(C)[C@H]3CC[C@@H]2[C@@](C)(Cn2cc(C#N)cn2)OC)C1 [Compound 36, 1-((S)-2-((3R,5R,8R,9R,10S,13S,14S,17S)-3-hydroxy-13-methyl-3-propylhexadecahydro-1H-cyclopenta[a]phenanthren-17-yl)-2-methoxypropyl)-1H-pyrazole-4-carbonitrile] | 0.1 to 1 µM |
